# US7368578B2, “Five-membered heterocyclic compounds” (Takeda Pharmaceutical Company Limited, priority 2002, dated 2008)
# pIC50: −log10 of the molar value.
# Target: T1, human PPARγ1 (Homo sapiens, UniProt P37231)
# T1 construct: made in house; host or cells: COS-1 cells transiently transfected with pMCMVneo-hPPARγ; crude supernatant of the lysate, not purified
# T1 sequence (P37231 1-477 isoform P37231-2): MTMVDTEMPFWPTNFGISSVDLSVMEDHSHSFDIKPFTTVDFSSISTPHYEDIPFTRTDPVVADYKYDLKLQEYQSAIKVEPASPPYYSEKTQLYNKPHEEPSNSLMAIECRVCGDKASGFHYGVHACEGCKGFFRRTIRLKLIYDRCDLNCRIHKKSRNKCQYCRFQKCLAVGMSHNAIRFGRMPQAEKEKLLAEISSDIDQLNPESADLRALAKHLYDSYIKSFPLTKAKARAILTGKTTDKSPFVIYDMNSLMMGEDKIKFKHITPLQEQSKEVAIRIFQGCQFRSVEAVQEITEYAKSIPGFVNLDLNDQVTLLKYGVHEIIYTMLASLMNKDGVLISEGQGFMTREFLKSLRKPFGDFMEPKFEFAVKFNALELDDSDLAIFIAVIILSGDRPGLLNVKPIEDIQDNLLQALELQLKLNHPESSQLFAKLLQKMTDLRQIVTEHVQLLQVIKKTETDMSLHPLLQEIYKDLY
# Assay: Measurement of human PPARγ1 binding activity ([3H]-compound A displacement)
# Conditions: cell extract with 1.5 μg/ml full length hPPARγ1, 20 nM [3H]-compound A, 4° C., 16 hrs
# Description: A cell extract containing 1.5 μg/ml of full length hPPARγ1 prepared in Reference Example 7a, 20 nM [^3H]-compound A (16 Ci/mmol)(Amersham Pharmacia Biotech) and a test compound were reacted in TEGM buffer at 4° C. for 16 hrs. To the reaction mixture was added activated carbon (Sigma) coated with 140 μl of dextran (Amersham Pharmacia Biotech) and gelatin (Sigma), and the mixture was left standing at 4° C. for 10 min and centrifuged at 910×g for 10 min. After centrifugation, the radioactivity of 30 μl of supernatant was measured with Topcount (Packard). In addition, a test similar to the above was conducted for the non-use of the aforementioned test compound and for the use of 100 μM of compound A instead of the aforementioned test compound, and the radioactivity was determined.
# The human PPARγ1 binding activity of the test compound was evaluated using percentages wherein the measured value of the radioactivity when 20 nM [^3H]-compound A alone was added was 100%, and the measured value of the radioactivity when 20 nM [^3H]-compound A and 100 μM of compound A were simultaneously added was 0%. Moreover, the IC50 value of the test compound was calculated based on the analysis of the compound concentration and the percentage using PRISM3.0 (Graph Pad, Inc.).
# COS-1 cells were seeded in a 150 cm^2 tissue culture flask (Corning Inc.) at 5×10^6 cells, and cultured under 37° C. 5% CO2 conditions for 24 hrs. Transfection was performed using lipofectamine (GIBCO BRL). To be specific, 125 μl of lipofectamine, 100 μl of PLUS Reagent and 15 μg of hPPARγ expression plasmid (plasmid pMCMVneo-hPPARγ obtained in Reference Example 6a) were mixed with opti-MEM (GIBCO BRL) to give a transfection mixture. The transfection mixture (25 ml) was added to COS-1 cells and the cells were cultured under 37° C. 5% CO2 conditions for 3 hrs. Then 25 ml of DMEM medium (Nikken Biomedical Laboratory) containing 10% FCS treated with activated carbon (Sigma) was added to the cells and the cells were cultured under 37° C. 5% CO2 conditions. After 24 hrs., the medium was substituted with 50 ml of DMEM medium (Nikken Biomedical Laboratory) containing 5% FCS treated with activated carbon, and the cells were cultured under 37° C., 5% CO2 conditions. After 48 hrs, the transfected cells were recovered and washed with TEG buffer (10 mM Tris-HCl (pH 7.2), 50 mM EDTA, 10% glycerol). The cells were suspended in 1 ml TEGM buffer (10 mM Tris-HCl (pH 7.2), 1 mM EDTA, 10% glycerol, 7 μl/100 ml β-mercaptoethanol, 10 mM Na molybdate, 1 mM dithiothreitol, 2 tablets/100 ml Protease inhibitor Cocktail tablets (Boehringer Mannheim)) and, for cell lysis, frozen with liquid nitrogen and thawed on ice. To remove the debris of the cells, the extract was centrifuged at 228,000×g, 4° C. for 20 min. and the supernatant was preserved at −80° C. until use.
row,pIC50,Structure (SMILES)
1,8.13,CCc1nc(/C=C/c2cn(-c3ccccc3)nc2OCc2ccc(OCc3nc(-c4cccc(C(=O)O)c4)oc3C)c(OC)c2)co1 [Example 307]
2,7.18,"CCc1nc(/C=C/c2cn(-c3ccccc3)nc2OCc2ccc(OCc3nc(-c4ccc(CC(=O)O)cc4)oc3C)c(OC)c2)cs1 [Example 337, {4-[4-({4-[({4-[(E)-2-(2-ethyl-1,3-thiazol-4-yl)ethenyl]-1-phenyl-1H-pyrazol-3-yl}oxy)methyl]-2-methoxyphenoxy}methyl)-5-methyl-1,3-oxazol-2-yl]phenyl}acetic acid]"
3,7.34,"CCn1cnc(/C=C/c2cn(-c3ccccc3)nc2OCc2ccc(OCc3nc(-c4ccc(CC(=O)O)cc4)oc3C)c(OC)c2)c1 [Example 344, (4-{4-[(4-[({4-[(E)-2-(1-ethyl-1H-imidazol-4-yl)ethenyl]-1-phenyl-1H-pyrazol-3-yl}oxy)methyl]-2-methoxyphenoxy)methyl]-5-methyl-1,3-oxazol-2-yl}phenyl)acetic acid]"
4,6.82,"COc1cc(COc2nn(-c3ccccc3)cc2/C=C/c2csc(C)n2)ccc1OCc1nc(-c2ccc(CC(=O)O)cc2)oc1C [Example 357, {4-[4-({2-methoxy-4-[({4-[(E)-2-(2-methyl-1,3-thiazol-4-yl)ethenyl]-1-phenyl-1H-pyrazol-3-yl}oxy)methyl]phenoxy}methyl)-5-methyl-1,3-oxazol-2-yl]phenyl}acetic acid]"
5,7.42,"COc1cc(COc2nn(-c3ccccc3)cc2/C=C/c2csc(C(C)C)n2)ccc1OCc1nc(-c2ccc(CC(=O)O)cc2)oc1C [Example 361, {4-[4-({4-[({4-[(E)-2-(2-isopropyl-1,3-thiazol-4-yl)ethenyl]-1-phenyl-1H-pyrazol-3-yl}oxy)methyl]-2-methoxyphenoxy}methyl)-5-methyl-1,3-oxazol-2-yl]phenyl}acetic acid]"
6,7.08,"CCc1nc(/C=C/c2cn(-c3ccccc3)nc2OCc2ccc(OCc3nc(-c4ccc(CC(=O)O)cc4)oc3C)c(OC)c2)co1 [Example 369, {4-[4-({4-[({4-[(E)-2-(2-ethyl-1,3-oxazol-4-yl)ethenyl]-1-phenyl-1H-pyrazol-3-yl}oxy)methyl]-2-methoxyphenoxy}methyl)-5-methyl-1,3-oxazol-2-yl]phenyl}acetic acid]"
7,7.49,"COc1cc(COc2nn(-c3ccccc3)cc2/C=C/c2coc(C(C)C)n2)ccc1OCc1nc(-c2ccc(CC(=O)O)cc2)oc1C [Example 370, {4-[4-({4-[({4-[(E)-2-(2-isopropyl-1,3-oxazol-4-yl)ethenyl]-1-phenyl-1H-pyrazol-3-yl}oxy)methyl]-2-methoxyphenoxy}methyl)-5-methyl-1,3-oxazol-2-yl]phenyl}acetic acid]"

row,Structure (SMILES),pIC50
1,"CCOP(=O)(/C=C/c1cn(-c2ccccc2)nc1OCc1ccc(OCc2nc(/C=C/C(=O)O)oc2C)c(OC)c1)OCC [Example 315, (2E)-3-[4-({4-[({4-[(E)-2-(diethoxyphosphoryl)ethenyl]-1-phenyl-1H-pyrazol-3-yl}oxy)methyl]-2-methoxyphenoxy}methyl)-5-methyl-1,3-oxazol-2-yl]-2-propenoic acid]",6.30
2,"CCOP(=O)(/C=C/c1cn(-c2ccccc2)nc1OCc1ccc(OCc2nc(-c3cccc(-c4nnn[nH]4)c3)oc2C)c(OC)c1)OCC [Example 336, {(E)-2-(3-{[3-methoxy-4-({5-methyl-2-[3-(1H-tetrazol-5-yl)phenyl]-1,3-oxazol-4-yl}methoxy)benzyl]oxy}-1-phenyl-1H-pyrazol-4-yl)ethenyl}phosphonate diethyl]",8.11
